In publication PMC6692420, “Validation of [^125I]CPCR4.3 as an investigative tool for the sensitive and specific detection of hCXCR4 and mCXCR4 expression in vitro and in vivo” (EJNMMI Research, 2019):
Non-standard residues stand in square brackets, D forms with d. Residues, ends and D or L forms follow the SMILES beside them. dAla(N-(6-guanidinohexyl)) = C[C@@H](NCCCCCCNC(=N)N)C(=O)O; dTyr(3-I) = N[C@H](Cc1ccc(O)c(I)c1)C(=O)O; 2Nal = N[C@@H](Cc1ccc2ccccc2c1)C(=O)O

What was measured:
mCXCR4 = target: T1, mCXCR4 (Mus musculus, UniProt P70658); assay: Competitive binding assay (IC50) on Eμ-Myc 1080 mouse lymphoma cells with [^125I]CPCR4.3 as radioligand; conditions: Eμ-Myc1080 mouse B cell lymphoma cells, 200,000 cells/sample, radioligand [^125I]CPCR4.3
T1 construct: endogenous in cells; host or cells: Eμ-myc 1080 mouse B cell lymphoma cells
Description: To allow data normalization, [^natGa] Pentixafor and FC-131 were included as references in this study. Experiments were performed in triplicate with n = 3 per concentration in each experiment. IC50 values were calculated using GraphPad Prism 6.01 (Graph Pad Software, San Diego, USA).

hCXCR4 = target: T2, hCXCR4 (Homo sapiens, UniProt P61073); assay: Competitive binding assay (IC50) on Jurkat cells with [^125I]CPCR4.3 as radioligand; conditions: for IC50: Jurkat human T cell leukemia cells, 200,000 cells/sample, radioligand [^125I]CPCR4.3
T2 construct: endogenous hCXCR4 (Jurkat); endogenous in cells
Description: To allow data normalization, [^natGa] […] Experiments were performed in triplicate with n = 3 per concentration in each experiment. IC50 values were calculated using GraphPad Prism 6.01 (Graph Pad Software, San Diego, USA).

T1 sequence (P70658 whole entry): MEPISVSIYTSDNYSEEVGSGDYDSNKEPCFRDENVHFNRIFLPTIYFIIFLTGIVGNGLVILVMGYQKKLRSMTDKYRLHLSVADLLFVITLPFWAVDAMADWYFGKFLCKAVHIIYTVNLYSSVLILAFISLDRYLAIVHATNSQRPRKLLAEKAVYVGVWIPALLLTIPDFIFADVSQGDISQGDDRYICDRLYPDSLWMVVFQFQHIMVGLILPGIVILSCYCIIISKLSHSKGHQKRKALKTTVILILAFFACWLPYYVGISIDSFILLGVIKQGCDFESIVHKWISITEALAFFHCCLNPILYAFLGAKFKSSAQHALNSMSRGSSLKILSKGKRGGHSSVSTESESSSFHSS
T2 sequence (P61073 whole entry): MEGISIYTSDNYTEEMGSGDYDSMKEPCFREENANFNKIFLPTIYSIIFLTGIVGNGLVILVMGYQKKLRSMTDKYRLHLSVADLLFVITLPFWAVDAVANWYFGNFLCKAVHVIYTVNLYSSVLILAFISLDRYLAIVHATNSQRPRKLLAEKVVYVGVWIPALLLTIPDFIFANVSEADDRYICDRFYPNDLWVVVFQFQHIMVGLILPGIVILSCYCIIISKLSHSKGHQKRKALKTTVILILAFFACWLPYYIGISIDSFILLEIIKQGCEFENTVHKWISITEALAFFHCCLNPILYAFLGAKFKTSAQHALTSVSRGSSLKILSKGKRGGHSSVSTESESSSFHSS

Compound	IC50 (mCXCR4)	IC50 (hCXCR4)	hCXCR4 affinity higher than [^natGa]Pentixafor (hCXCR4; assay conditions of this study)
C[C@@H]1C(=O)N[C@@H](CCCNC(=N)N)C(=O)N[C@@H](Cc2ccc3ccccc3c2)C(=O)NCC(=O)N[C@H](Cc2ccc(O)cc2)C(=O)N1CCCCCCNC(=N)N [CPCR4.3, cyclo(-D-Tyr^1-D-[N-hexyl-6-guanidino]Ala^2-Arg^3-Nal^4-Gly^5-)] (cyclo([dY][dAla(N-(6-guanidinohexyl))]R[2Nal]G))	0.8 ± 0.1 nM	2.8 ± 1.1 nM	–
N=C(N)NCCC[C@@H]1NC(=O)[C@H](CCCNC(=N)N)NC(=O)[C@@H](Cc2ccc(O)cc2)NC(=O)CNC(=O)[C@H](Cc2ccc3ccccc3c2)NC1=O [FC-131]	119 ± 69 nM	–	more than 3 fold

Results, then the compound that gave them:

IC50 (mCXCR4)	IC50 (hCXCR4)	hCXCR4 affinity higher than [^natGa]Pentixafor (hCXCR4; assay conditions of this study)	Compound
4.9 ± 1.7 nM	5.4 ± 1.5 nM	–	C[C@@H]1C(=O)N[C@@H](CCCNC(=N)N)C(=O)N[C@@H](Cc2ccc3ccccc3c2)C(=O)NCC(=O)N[C@H](Cc2ccc(O)c(I)c2)C(=O)N1CCCCCCNC(=N)N [iodo-CPCR4.3] (cyclo([dTyr(3-I)][dAla(N-(6-guanidinohexyl))]R[2Nal]G))
> 1000 nM	–	–	Ga-Pentixafor: natGa complex of the cyclic pentapeptide Pentixafor, hCXCR4 selective reference ligand
–	42.4 ± 11.6 nM	–	Ga-Pentixafor: natGa complex of the cyclic pentapeptide Pentixafor, hCXCR4 selective reference ligand (YXRXG; Head-to-tail cyclic pentapeptide; The parent CPCR4.3 is printed as cyclo(-D-Tyr1-D-[N-hexyl-6-guanidino]Ala2-Arg3-Nal4-Gly5-); the text states that Pentixafor has D-Orn at position 2 instead of the N-)
